Measured values as given in the kinase profiling compilation of Christmann-Franck et al. (2016).

Key:
Experiment in all cases: radiometric filter-binding kinase assay, Kinase HotSpot
Conditions in all cases: compound 0.5 µM; ATP 10 µM
ADRBK2 (human) = ADRBK2 (human) (UniProt P35626)
AKT1 (human) = AKT1 (human) (UniProt P31749)
CDC42BPA (human) = CDC42BPA (human) (UniProt Q5VT25)
CDK5 CDK5R1 p25 (human) = CDK5 CDK5R1 p25 (human) (UniProt Q00535+Q15078)
CSF1R (human) = CSF1R (human) (UniProt P07333)
CSNK1E (human) = CSNK1E (human) (UniProt P49674)
CSNK1G2 (human) = CSNK1G2 (human) (UniProt P78368)
DYRK3 (human) = DYRK3 (human) (UniProt O43781)
EPHA5 (human) = EPHA5 (human) (UniProt P54756)
EPHA8 (human) = EPHA8 (human) (UniProt P29322)
EPHB2 (human) = EPHB2 (human) (UniProt P29323)
FER (human) = FER (human) (UniProt P16591)
FLT3 (human) = FLT3 (human) (UniProt P36888)
Chain of FLT3 (human) (P36888 whole entry, looked up): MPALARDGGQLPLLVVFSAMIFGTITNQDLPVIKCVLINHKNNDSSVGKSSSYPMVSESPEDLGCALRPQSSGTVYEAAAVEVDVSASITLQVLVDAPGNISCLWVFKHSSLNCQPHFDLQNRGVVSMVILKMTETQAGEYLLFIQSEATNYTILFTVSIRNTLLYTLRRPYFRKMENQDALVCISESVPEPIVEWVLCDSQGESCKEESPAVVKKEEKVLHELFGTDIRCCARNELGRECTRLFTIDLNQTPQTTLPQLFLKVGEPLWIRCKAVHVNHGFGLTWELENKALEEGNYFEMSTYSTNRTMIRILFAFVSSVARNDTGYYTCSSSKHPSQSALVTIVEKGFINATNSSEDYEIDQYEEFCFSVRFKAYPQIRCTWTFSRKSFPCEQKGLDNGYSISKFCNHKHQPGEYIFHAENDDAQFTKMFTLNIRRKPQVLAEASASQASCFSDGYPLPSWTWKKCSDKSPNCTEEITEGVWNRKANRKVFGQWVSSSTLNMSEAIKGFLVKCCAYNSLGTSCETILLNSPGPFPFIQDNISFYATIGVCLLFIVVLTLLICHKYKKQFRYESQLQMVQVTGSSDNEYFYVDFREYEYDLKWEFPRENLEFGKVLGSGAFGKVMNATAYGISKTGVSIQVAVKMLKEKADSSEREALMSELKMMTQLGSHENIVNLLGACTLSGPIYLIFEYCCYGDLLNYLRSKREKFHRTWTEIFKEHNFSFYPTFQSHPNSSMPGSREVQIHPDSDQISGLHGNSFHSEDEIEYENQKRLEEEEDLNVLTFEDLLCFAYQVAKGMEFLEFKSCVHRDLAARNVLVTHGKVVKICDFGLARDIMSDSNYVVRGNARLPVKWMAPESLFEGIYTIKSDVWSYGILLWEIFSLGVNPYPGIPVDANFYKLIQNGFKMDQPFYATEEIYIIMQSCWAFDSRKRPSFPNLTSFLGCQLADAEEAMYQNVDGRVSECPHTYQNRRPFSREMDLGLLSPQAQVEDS

GRK5 (human) = GRK5 (human) (UniProt P34947)
IKBKE (human) = IKBKE (human) (UniProt Q14164)
INSR (human) = INSR (human) (UniProt P06213)
INSRR (human) = INSRR (human) (UniProt P14616)
KIT (human) = KIT (human) (UniProt P10721)
MAP3K2 (human) = MAP3K2 (human) (UniProt Q9Y2U5)
MAP3K8 (human) = MAP3K8 (human) (UniProt P41279)
Chain of MAP3K8 (human) (P41279 whole entry, looked up): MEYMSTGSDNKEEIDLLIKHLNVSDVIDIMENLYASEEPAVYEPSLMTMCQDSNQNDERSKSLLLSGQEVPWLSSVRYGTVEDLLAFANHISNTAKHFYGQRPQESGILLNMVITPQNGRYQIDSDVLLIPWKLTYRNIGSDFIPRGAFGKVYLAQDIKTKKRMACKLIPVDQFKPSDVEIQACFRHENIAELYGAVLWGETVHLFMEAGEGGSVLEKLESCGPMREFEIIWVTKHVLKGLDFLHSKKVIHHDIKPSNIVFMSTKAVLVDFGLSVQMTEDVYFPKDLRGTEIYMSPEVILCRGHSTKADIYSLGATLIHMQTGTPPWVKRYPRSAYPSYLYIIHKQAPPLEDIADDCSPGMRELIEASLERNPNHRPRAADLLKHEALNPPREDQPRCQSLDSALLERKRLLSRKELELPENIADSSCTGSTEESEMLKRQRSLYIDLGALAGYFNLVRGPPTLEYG

MAP4K5 (human) = MAP4K5 (human) (UniProt Q9Y4K4)
MAPKAPK3 (human) = MAPKAPK3 (human) (UniProt Q16644)
Chain of MAPKAPK3 (human) (Q16644 whole entry, looked up): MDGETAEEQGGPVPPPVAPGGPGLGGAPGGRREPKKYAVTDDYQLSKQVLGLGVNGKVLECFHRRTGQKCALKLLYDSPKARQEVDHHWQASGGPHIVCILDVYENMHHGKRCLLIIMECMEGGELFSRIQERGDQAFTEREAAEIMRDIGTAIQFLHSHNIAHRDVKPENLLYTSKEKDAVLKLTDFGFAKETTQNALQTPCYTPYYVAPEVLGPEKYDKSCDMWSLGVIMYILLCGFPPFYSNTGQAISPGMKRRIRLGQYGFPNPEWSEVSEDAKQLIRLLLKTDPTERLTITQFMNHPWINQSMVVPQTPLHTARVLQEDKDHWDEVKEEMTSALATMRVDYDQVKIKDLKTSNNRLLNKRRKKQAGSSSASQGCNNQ

MST4 (human) = MST4 (human) (UniProt Q9P289)
Chain of MST4 (human) (Q9P289 whole entry, looked up): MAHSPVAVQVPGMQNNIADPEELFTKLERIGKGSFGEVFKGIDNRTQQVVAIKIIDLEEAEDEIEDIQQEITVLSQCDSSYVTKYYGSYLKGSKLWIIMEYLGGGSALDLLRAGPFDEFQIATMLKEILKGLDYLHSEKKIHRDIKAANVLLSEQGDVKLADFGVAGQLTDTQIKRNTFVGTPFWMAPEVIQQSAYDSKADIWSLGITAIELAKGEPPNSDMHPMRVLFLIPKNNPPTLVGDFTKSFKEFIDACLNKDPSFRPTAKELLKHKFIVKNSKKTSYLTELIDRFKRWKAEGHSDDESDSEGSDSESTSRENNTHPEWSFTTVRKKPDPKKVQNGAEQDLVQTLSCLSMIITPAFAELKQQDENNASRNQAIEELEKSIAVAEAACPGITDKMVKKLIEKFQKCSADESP

MUSK (human) = MUSK (human) (UniProt O15146)
MYLK2 (human) = MYLK2 (human) (UniProt Q9H1R3)
NEK1 (human) = NEK1 (human) (UniProt Q96PY6)
NEK3 (human) = NEK3 (human) (UniProt P51956)
PAK6 (human) = PAK6 (human) (UniProt Q9NQU5)
PDGFRA (human) = PDGFRA (human) (UniProt P16234)
PLK1 (human) = PLK1 (human) (UniProt P53350)
PNCK (human) = PNCK (human) (UniProt Q6P2M8)
PRKCB1 (human) = PRKCB1 (human) (UniProt P05771)
PRKCB2 (human) = PRKCB2 (human) (UniProt P05771)
Chain of PRKCB2 (human) (P05771 whole entry, looked up): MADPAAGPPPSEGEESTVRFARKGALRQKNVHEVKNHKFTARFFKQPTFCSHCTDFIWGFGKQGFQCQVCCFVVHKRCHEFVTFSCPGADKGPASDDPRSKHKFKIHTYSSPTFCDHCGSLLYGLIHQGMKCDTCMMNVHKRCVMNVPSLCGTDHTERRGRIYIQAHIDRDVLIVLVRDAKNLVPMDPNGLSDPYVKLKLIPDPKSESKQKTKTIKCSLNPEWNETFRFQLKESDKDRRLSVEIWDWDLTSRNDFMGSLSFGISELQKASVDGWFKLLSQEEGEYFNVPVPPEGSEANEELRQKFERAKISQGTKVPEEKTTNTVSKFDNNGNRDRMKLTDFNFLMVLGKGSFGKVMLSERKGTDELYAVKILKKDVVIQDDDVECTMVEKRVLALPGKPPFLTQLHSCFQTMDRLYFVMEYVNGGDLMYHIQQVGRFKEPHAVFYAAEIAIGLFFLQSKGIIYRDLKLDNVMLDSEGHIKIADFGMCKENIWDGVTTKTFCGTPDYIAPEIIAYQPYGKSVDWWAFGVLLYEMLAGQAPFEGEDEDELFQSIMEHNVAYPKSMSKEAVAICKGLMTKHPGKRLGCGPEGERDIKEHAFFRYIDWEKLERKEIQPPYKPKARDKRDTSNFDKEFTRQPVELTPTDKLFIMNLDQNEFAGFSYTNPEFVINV

PRKCE (human) = PRKCE (human) (UniProt Q02156)
PRKD1 (human) = PRKD1 (human) (UniProt Q15139)
PTK2 (human) = PTK2 (human) (UniProt Q05397)
ROCK2 (human) = ROCK2 (human) (UniProt O75116)
ROS1 (human) = ROS1 (human) (UniProt P08922)
SGK2 (human) = SGK2 (human) (UniProt Q9HBY8)
Chain of SGK2 (human) (Q9HBY8 whole entry, looked up): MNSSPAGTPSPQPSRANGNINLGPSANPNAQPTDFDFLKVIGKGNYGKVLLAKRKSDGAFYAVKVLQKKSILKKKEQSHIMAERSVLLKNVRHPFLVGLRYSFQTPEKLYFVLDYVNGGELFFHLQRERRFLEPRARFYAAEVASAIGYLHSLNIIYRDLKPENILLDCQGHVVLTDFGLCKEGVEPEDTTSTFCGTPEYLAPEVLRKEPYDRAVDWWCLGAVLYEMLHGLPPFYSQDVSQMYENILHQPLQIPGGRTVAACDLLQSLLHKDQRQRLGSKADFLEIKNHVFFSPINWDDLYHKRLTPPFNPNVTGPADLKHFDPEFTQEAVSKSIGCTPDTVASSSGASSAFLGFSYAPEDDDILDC

STK25 (human) = STK25 (human) (UniProt O00506)
TEC (human) = TEC (human) (UniProt P42680)
ULK1 (human) = ULK1 (human) (UniProt O75385)

Chain of CDC42BPA (human) (Q5VT25 whole entry, looked up): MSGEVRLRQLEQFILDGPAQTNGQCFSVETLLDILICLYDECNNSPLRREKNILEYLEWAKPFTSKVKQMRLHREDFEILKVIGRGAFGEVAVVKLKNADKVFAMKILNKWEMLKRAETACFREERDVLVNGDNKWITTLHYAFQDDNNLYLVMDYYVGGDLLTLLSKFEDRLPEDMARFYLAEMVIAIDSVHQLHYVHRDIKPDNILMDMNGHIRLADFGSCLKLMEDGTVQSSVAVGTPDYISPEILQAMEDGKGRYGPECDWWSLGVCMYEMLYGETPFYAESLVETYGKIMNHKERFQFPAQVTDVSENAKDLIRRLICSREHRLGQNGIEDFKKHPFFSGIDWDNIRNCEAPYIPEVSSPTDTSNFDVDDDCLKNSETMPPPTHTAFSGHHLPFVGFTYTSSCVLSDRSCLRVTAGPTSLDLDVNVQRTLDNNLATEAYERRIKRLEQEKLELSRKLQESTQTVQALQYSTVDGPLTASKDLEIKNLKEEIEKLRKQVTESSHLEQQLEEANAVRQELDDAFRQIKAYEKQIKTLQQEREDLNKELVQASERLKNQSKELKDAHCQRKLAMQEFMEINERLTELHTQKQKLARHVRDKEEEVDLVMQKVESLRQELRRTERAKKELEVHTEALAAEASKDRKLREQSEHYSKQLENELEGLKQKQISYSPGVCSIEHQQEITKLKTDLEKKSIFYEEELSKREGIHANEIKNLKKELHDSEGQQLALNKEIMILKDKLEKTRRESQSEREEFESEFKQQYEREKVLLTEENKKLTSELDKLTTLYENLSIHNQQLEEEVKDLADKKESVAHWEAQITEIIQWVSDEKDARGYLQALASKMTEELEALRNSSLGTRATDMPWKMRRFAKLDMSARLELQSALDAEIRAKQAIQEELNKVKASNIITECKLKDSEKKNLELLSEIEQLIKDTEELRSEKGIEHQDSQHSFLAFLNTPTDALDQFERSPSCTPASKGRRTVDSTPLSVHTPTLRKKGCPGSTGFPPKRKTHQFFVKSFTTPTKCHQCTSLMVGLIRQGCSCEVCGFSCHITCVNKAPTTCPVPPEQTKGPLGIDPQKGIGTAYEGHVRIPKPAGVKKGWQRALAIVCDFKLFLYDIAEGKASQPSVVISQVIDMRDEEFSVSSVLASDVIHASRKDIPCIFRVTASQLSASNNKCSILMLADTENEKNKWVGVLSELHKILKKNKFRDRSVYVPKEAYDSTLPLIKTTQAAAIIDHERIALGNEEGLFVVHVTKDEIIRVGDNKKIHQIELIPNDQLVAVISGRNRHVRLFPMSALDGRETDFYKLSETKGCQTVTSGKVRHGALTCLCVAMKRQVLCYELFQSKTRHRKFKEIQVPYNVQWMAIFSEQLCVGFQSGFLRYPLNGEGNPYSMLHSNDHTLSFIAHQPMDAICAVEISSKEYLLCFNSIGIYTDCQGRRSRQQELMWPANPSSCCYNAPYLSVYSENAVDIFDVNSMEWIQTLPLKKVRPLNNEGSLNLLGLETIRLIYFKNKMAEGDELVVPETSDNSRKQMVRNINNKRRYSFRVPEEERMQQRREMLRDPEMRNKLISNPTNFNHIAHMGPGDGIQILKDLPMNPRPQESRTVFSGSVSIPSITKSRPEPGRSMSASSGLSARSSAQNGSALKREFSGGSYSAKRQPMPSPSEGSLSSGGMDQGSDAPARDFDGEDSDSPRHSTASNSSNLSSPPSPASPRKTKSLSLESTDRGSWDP

Compound `O=C1Nc2ccccc2/C1=C1/Nc2ccccc2/C1=N\OCCC(O)CO` (stereo not drawn) has a residual activity (ADRBK2 (human)) of 100%, a residual activity (AKT1 (human)) of 95.6% and a residual activity (CDC42BPA (human)) of 88.6%. For the same compound, the residual activity (CDK5 CDK5R1 p25 (human)) was 16.4%, the residual activity (CSF1R (human)) was 21.1% and the residual activity (CSNK1E (human)) was 43.2%. It also gave a residual activity (CSNK1G2 (human)) of 85.2%, a residual activity (DYRK3 (human)) of 105% and a residual activity (EPHA5 (human)) of 68%. It also gave a residual activity (EPHA8 (human)) of 91.9%, a residual activity (EPHB2 (human)) of 75% and a residual activity (FER (human)) of 28.8%. The residual activity (FLT3 (human)) was 1.07%, the residual activity (GRK5 (human)) was 84.6% and the residual activity (IKBKE (human)) was 45.7%. For the same compound, the residual activity (INSR (human)) was 44.9%, the residual activity (INSRR (human)) was 2.77% and the residual activity (KIT (human)) was 44.8%. It also gave a residual activity (MAP3K2 (human)) of 60.6%, a residual activity (MAP3K8 (human)) of 123% and a residual activity (MAP4K5 (human)) of 15.5%. The residual activity (MAPKAPK3 (human)) was 98.9%, the residual activity (MST4 (human)) was 73.1% and the residual activity (MUSK (human)) was 58%. For the same compound, the residual activity (MYLK2 (human)) was 27.3%, the residual activity (NEK1 (human)) was 92.9% and the residual activity (NEK3 (human)) was 102%. The residual activity (PAK6 (human)) was 93.5%, the residual activity (PDGFRA (human)) was 76.7% and the residual activity (PLK1 (human)) was 103%. For the same compound, the residual activity (PNCK (human)) was 101%, the residual activity (PRKCB1 (human)) was 93.6% and the residual activity (PRKCB2 (human)) was 88%. The residual activity (PRKCE (human)) was 92.2%, the residual activity (PRKD1 (human)) was 72.7% and the residual activity (PTK2 (human)) was 35%. For the same compound, the residual activity (ROCK2 (human)) was 91%, the residual activity (ROS1 (human)) was 27% and the residual activity (SGK2 (human)) was 75.8%. For the same compound, the residual activity (STK25 (human)) was 74%, the residual activity (TEC (human)) was 101% and the residual activity (ULK1 (human)) was 98.3%.
`CC(C)[C@H](CO)Nc1nc(Nc2cc(N)cc(Cl)c2)c2ncn(C(C)C)c2n1` showed a residual activity (ADRBK2 (human)) of 97.1%, a residual activity (AKT1 (human)) of 117% and a residual activity (CDC42BPA (human)) of 99.4%. The residual activity (CDK5 CDK5R1 p25 (human)) was 3.31%, the residual activity (CSF1R (human)) was 71.1% and the residual activity (CSNK1E (human)) was 82.7%. The residual activity (CSNK1G2 (human)) was 35.2%, the residual activity (DYRK3 (human)) was 103% and the residual activity (EPHA5 (human)) was 64%. The residual activity (EPHA8 (human)) was 92.5%, the residual activity (EPHB2 (human)) was 73.6% and the residual activity (FER (human)) was 54.9%. The residual activity (FLT3 (human)) was 8.35%, the residual activity (GRK5 (human)) was 101% and the residual activity (IKBKE (human)) was 88.4%. It also gave a residual activity (INSR (human)) of 85%, a residual activity (INSRR (human)) of 70.8% and a residual activity (KIT (human)) of 86.2%. It also gave a residual activity (MAP3K2 (human)) of 83.1%, a residual activity (MAP3K8 (human)) of 109% and a residual activity (MAP4K5 (human)) of 82.5%. The residual activity (MAPKAPK3 (human)) was 98.4%, the residual activity (MST4 (human)) was 67.8% and the residual activity (MUSK (human)) was 46%. It also gave a residual activity (MYLK2 (human)) of 99.5%, a residual activity (NEK1 (human)) of 81.5% and a residual activity (NEK3 (human)) of 100%. It also gave a residual activity (PAK6 (human)) of 57.3%, a residual activity (PDGFRA (human)) of 89.4% and a residual activity (PLK1 (human)) of 54.9%. For the same compound, the residual activity (PNCK (human)) was 132%, the residual activity (PRKCB1 (human)) was 98.8% and the residual activity (PRKCB2 (human)) was 97.3%. For the same compound, the residual activity (PRKCE (human)) was 105%, the residual activity (PRKD1 (human)) was 94.2% and the residual activity (PTK2 (human)) was 59.5%. For the same compound, the residual activity (ROCK2 (human)) was 101%, the residual activity (ROS1 (human)) was 96.5% and the residual activity (SGK2 (human)) was 121%. It also gave a residual activity (STK25 (human)) of 81.8%, a residual activity (TEC (human)) of 130% and a residual activity (ULK1 (human)) of 41.5%.
`CN(C)C[C@H]1CCn2c(c(C3=C(c4cn(C)c5ccccc45)C(=O)NC3=O)c3ccccc32)C1` gave a residual activity (ADRBK2 (human)) of 102%, a residual activity (AKT1 (human)) of 98.7% and a residual activity (CDC42BPA (human)) of 98.1%. The residual activity (CDK5 CDK5R1 p25 (human)) was 84.7%, the residual activity (CSF1R (human)) was 98.1% and the residual activity (CSNK1E (human)) was 99.7%. The residual activity (CSNK1G2 (human)) was 97%, the residual activity (DYRK3 (human)) was 102% and the residual activity (EPHA5 (human)) was 95.1%. For the same compound, the residual activity (EPHA8 (human)) was 102%, the residual activity (EPHB2 (human)) was 110% and the residual activity (FER (human)) was 69.2%. For the same compound, the residual activity (FLT3 (human)) was 37.1%, the residual activity (GRK5 (human)) was 56.2% and the residual activity (IKBKE (human)) was 78.8%. The residual activity (INSR (human)) was 88%, the residual activity (INSRR (human)) was 98.7% and the residual activity (KIT (human)) was 92.7%. For the same compound, the residual activity (MAP3K2 (human)) was 94.6%, the residual activity (MAP3K8 (human)) was 95% and the residual activity (MAP4K5 (human)) was 99.9%. The residual activity (MAPKAPK3 (human)) was 97.9%, the residual activity (MST4 (human)) was 78% and the residual activity (MUSK (human)) was 85.6%. The residual activity (MYLK2 (human)) was 74.2%, the residual activity (NEK1 (human)) was 105% and the residual activity (NEK3 (human)) was 99.4%. It also gave a residual activity (PAK6 (human)) of 114%, a residual activity (PDGFRA (human)) of 93.1% and a residual activity (PLK1 (human)) of 102%. It also gave a residual activity (PNCK (human)) of 95.2%, a residual activity (PRKCB1 (human)) of 3.71% and a residual activity (PRKCB2 (human)) of 2.29%. It also gave a residual activity (PRKCE (human)) of 2.73%, a residual activity (PRKD1 (human)) of 101% and a residual activity (PTK2 (human)) of 95.9%. The residual activity (ROCK2 (human)) was 98.9%, the residual activity (ROS1 (human)) was 87.1% and the residual activity (SGK2 (human)) was 71.7%. For the same compound, the residual activity (STK25 (human)) was 96%, the residual activity (TEC (human)) was 108% and the residual activity (ULK1 (human)) was 98.9%.
Compound `CC(C)c1nn(-c2c(Cl)cccc2Cl)c2nc(Cc3ccc(OCCO)cc3)nc(O)c12` has a residual activity (ADRBK2 (human)) of 87.9%, a residual activity (AKT1 (human)) of 94.7% and a residual activity (CDC42BPA (human)) of 89.5%. For the same compound, the residual activity (CDK5 CDK5R1 p25 (human)) was 2.54%, the residual activity (CSF1R (human)) was 94.6% and the residual activity (CSNK1E (human)) was 83.6%. The residual activity (CSNK1G2 (human)) was 95.7%, the residual activity (DYRK3 (human)) was 99% and the residual activity (EPHA5 (human)) was 110%. For the same compound, the residual activity (EPHA8 (human)) was 102%, the residual activity (EPHB2 (human)) was 92.5% and the residual activity (FER (human)) was 89.4%. It also gave a residual activity (FLT3 (human)) of 74.2%, a residual activity (GRK5 (human)) of 108% and a residual activity (IKBKE (human)) of 95.6%. For the same compound, the residual activity (INSR (human)) was 100%, the residual activity (INSRR (human)) was 94.2% and the residual activity (KIT (human)) was 71%. The residual activity (MAP3K2 (human)) was 94.7%, the residual activity (MAP3K8 (human)) was 96.4% and the residual activity (MAP4K5 (human)) was 89.9%. The residual activity (MAPKAPK3 (human)) was 89.2%, the residual activity (MST4 (human)) was 46.8% and the residual activity (MUSK (human)) was 96.2%. It also gave a residual activity (MYLK2 (human)) of 96.6%, a residual activity (NEK1 (human)) of 90.9% and a residual activity (NEK3 (human)) of 87.3%. It also gave a residual activity (PAK6 (human)) of 102%, a residual activity (PDGFRA (human)) of 91.6% and a residual activity (PLK1 (human)) of 93.9%. The residual activity (PNCK (human)) was 94.3%, the residual activity (PRKCB1 (human)) was 101% and the residual activity (PRKCB2 (human)) was 96.7%. The residual activity (PRKCE (human)) was 90.5%, the residual activity (PRKD1 (human)) was 103% and the residual activity (PTK2 (human)) was 103%. The residual activity (ROCK2 (human)) was 92.5%, the residual activity (ROS1 (human)) was 105% and the residual activity (SGK2 (human)) was 101%. The residual activity (STK25 (human)) was 68.1%, the residual activity (TEC (human)) was 105% and the residual activity (ULK1 (human)) was 125%.
